Test results taken from PubChem BioAssay (NCI).
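GI50 is the concentration that inhibits growth by half. TGI is the concentration that stops growth completely.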

What was measured:
Assay in all cases: NCI-60 cell line screen, 384-well format
NCI-H23 lung = test system: NCI-H23 lung
RPMI-8226 leukemia = test system: RPMI-8226 leukemia
HL-60(TB) leukemia = test system: HL-60(TB) leukemia
CAKI-1 renal = test system: CAKI-1 renal
MDA-MB-468 breast = test system: MDA-MB-468 breast
HCT-116 colon = test system: HCT-116 colon
NCI-H322M lung = test system: NCI-H322M lung
TK-10 renal = test system: TK-10 renal
SK-MEL-28 melanoma = test system: SK-MEL-28 melanoma
NCI-H460 NSCLC = test system: NCI-H460 NSCLC
SF-268 CNS = test system: SF-268 CNS
SK-MEL-5 melanoma = test system: SK-MEL-5 melanoma
SF-295 CNS = test system: SF-295 CNS
LOX IMVI melanoma = test system: LOX IMVI melanoma
SNB-19 CNS = test system: SNB-19 CNS
HS 578T breast = test system: HS 578T breast
HCC-2998 colon = test system: HCC-2998 colon
HOP-92 NSCLC = test system: HOP-92 NSCLC
HCT-15 colon = test system: HCT-15 colon
OVCAR-4 ovarian = test system: OVCAR-4 ovarian
MDA-MB-231 breast = test system: MDA-MB-231 breast
MOLT-4 leukemia = test system: MOLT-4 leukemia
OVCAR-3 ovarian = test system: OVCAR-3 ovarian
SNB-75 CNS = test system: SNB-75 CNS
NCI/ADR-RES ovarian = test system: NCI/ADR-RES ovarian
SR leukemia = test system: SR leukemia
M14 melanoma = test system: M14 melanoma
IGROV1 ovarian = test system: IGROV1 ovarian
T-47D breast = test system: T-47D breast
COLO 205 colon = test system: COLO 205 colon
HOP-62 NSCLC = test system: HOP-62 NSCLC
NCI-H522 lung = test system: NCI-H522 lung
UACC-62 melanoma = test system: UACC-62 melanoma
OVCAR-5 ovarian = test system: OVCAR-5 ovarian
SK-OV-3 ovarian = test system: SK-OV-3 ovarian
OVCAR-8 ovarian = test system: OVCAR-8 ovarian
RXF 393 renal = test system: RXF 393 renal
KM12 colon = test system: KM12 colon
BT-549 breast = test system: BT-549 breast
PC-3 prostate = test system: PC-3 prostate
A498 renal = test system: A498 renal
SF-539 CNS = test system: SF-539 CNS
DU-145 prostate = test system: DU-145 prostate
MDA-MB-435 melanoma = test system: MDA-MB-435 melanoma
NCI-H226 lung = test system: NCI-H226 lung
EKVX NSCLC = test system: EKVX NSCLC
UACC-257 melanoma = test system: UACC-257 melanoma
U251 glioblastoma = test system: U251 glioblastoma
MALME-3M melanoma = test system: MALME-3M melanoma
A549 NSCLC = test system: A549 NSCLC
MCF7 breast = test system: MCF7 breast
ACHN renal = test system: ACHN renal
HT29 colon = test system: HT29 colon
SN12C renal = test system: SN12C renal

Compound `O=c1[nH]cnc2[nH]ncc12` has a GI50 (NCI-H23 lung) of 98.4 µM, a GI50 (RPMI-8226 leukemia) of 24 µM and a TGI (RPMI-8226 leukemia) of 60.9 µM. It also gave a GI50 (HL-60(TB) leukemia) of 74.5 µM, a GI50 (CAKI-1 renal) of 36.8 µM and a GI50 (MDA-MB-468 breast) of 85.2 µM.
`CC(=O)O/N=C1/C(c2c(O)[nH]c3cc(Br)ccc23)=Nc2ccccc21` was tested, and the GI50 (HCT-116 colon) was 1.03 µM, the TGI (HCT-116 colon) was 2.23 µM and the GI50 (NCI-H322M lung) was 0.727 µM. It also gave a TGI (NCI-H322M lung) of 2.01 µM, a GI50 (TK-10 renal) of 0.356 µM and a TGI (TK-10 renal) of 1.59 µM. For the same compound, the GI50 (NCI-H23 lung) was 1.47 µM, the TGI (NCI-H23 lung) was 2.86 µM and the GI50 (SK-MEL-28 melanoma) was 1.67 µM. For the same compound, the TGI (SK-MEL-28 melanoma) was 3.07 µM, the GI50 (NCI-H460 NSCLC) was 0.798 µM and the TGI (NCI-H460 NSCLC) was 2.07 µM. The GI50 (SF-268 CNS) was 1.05 µM, the TGI (SF-268 CNS) was 2.25 µM and the GI50 (SK-MEL-5 melanoma) was 0.312 µM. It also gave a TGI (SK-MEL-5 melanoma) of 1.66 µM, a GI50 (SF-295 CNS) of 1 µM and a TGI (SF-295 CNS) of 2.32 µM. It also gave a GI50 (RPMI-8226 leukemia) of 0.685 µM, a TGI (RPMI-8226 leukemia) of 1.86 µM and a GI50 (LOX IMVI melanoma) of 1.11 µM. It also gave a TGI (LOX IMVI melanoma) of 2.31 µM, a GI50 (SNB-19 CNS) of 1.47 µM and a TGI (SNB-19 CNS) of 2.87 µM. For the same compound, the GI50 (HS 578T breast) was 0.215 µM, the TGI (HS 578T breast) was 0.86 µM and the GI50 (HCC-2998 colon) was 0.54 µM. For the same compound, the TGI (HCC-2998 colon) was 1.98 µM, the GI50 (HOP-92 NSCLC) was 1.25 µM and the TGI (HOP-92 NSCLC) was 2.65 µM. It also gave a GI50 (HCT-15 colon) of 0.686 µM, a TGI (HCT-15 colon) of 1.95 µM and a GI50 (OVCAR-4 ovarian) of 1.25 µM. The TGI (OVCAR-4 ovarian) was 2.54 µM, the GI50 (MDA-MB-231 breast) was 1.3 µM and the TGI (MDA-MB-231 breast) was 2.65 µM. It also gave a GI50 (MOLT-4 leukemia) of 1.9 µM, a TGI (MOLT-4 leukemia) of 3.32 µM and a GI50 (OVCAR-3 ovarian) of 0.186 µM. The TGI (OVCAR-3 ovarian) was 0.946 µM, the GI50 (HL-60(TB) leukemia) was 0.495 µM and the TGI (HL-60(TB) leukemia) was 1.15 µM. The GI50 (SNB-75 CNS) was 0.554 µM, the TGI (SNB-75 CNS) was 2.04 µM and the GI50 (NCI/ADR-RES ovarian) was 1.24 µM. It also gave a TGI (NCI/ADR-RES ovarian) of 2.52 µM, a GI50 (SR leukemia) of 1.14 µM and a TGI (SR leukemia) of 2.35 µM. It also gave a GI50 (M14 melanoma) of 1.61 µM, a TGI (M14 melanoma) of 2.97 µM and a GI50 (IGROV1 ovarian) of 0.157 µM. The TGI (IGROV1 ovarian) was 1.35 µM, the GI50 (CAKI-1 renal) was 0.675 µM and the TGI (CAKI-1 renal) was 1.97 µM. It also gave a GI50 (T-47D breast) of 1.76 µM, a TGI (T-47D breast) of 3.23 µM and a GI50 (COLO 205 colon) of 1.27 µM. The TGI (COLO 205 colon) was 2.53 µM, the GI50 (HOP-62 NSCLC) was 1.07 µM and the TGI (HOP-62 NSCLC) was 2.26 µM. The GI50 (NCI-H522 lung) was 1.48 µM, the TGI (NCI-H522 lung) was 2.81 µM and the GI50 (UACC-62 melanoma) was 0.636 µM. For the same compound, the TGI (UACC-62 melanoma) was 1.89 µM, the GI50 (OVCAR-5 ovarian) was 1.98 µM and the TGI (OVCAR-5 ovarian) was 3.4 µM. For the same compound, the GI50 (SK-OV-3 ovarian) was 0.275 µM, the TGI (SK-OV-3 ovarian) was 1.33 µM and the GI50 (OVCAR-8 ovarian) was 1.1 µM. The TGI (OVCAR-8 ovarian) was 2.31 µM, the GI50 (RXF 393 renal) was 1.01 µM and the TGI (RXF 393 renal) was 2.22 µM. The GI50 (KM12 colon) was 0.532 µM, the TGI (KM12 colon) was 2.01 µM and the GI50 (BT-549 breast) was 0.574 µM. For the same compound, the TGI (BT-549 breast) was 1.91 µM, the GI50 (PC-3 prostate) was 0.462 µM and the TGI (PC-3 prostate) was 1.78 µM. For the same compound, the GI50 (A498 renal) was 0.182 µM, the TGI (A498 renal) was 0.496 µM and the GI50 (SF-539 CNS) was 0.505 µM. For the same compound, the TGI (SF-539 CNS) was 1.69 µM, the GI50 (DU-145 prostate) was 1.05 µM and the TGI (DU-145 prostate) was 2.29 µM. For the same compound, the GI50 (MDA-MB-435 melanoma) was 1.34 µM, the TGI (MDA-MB-435 melanoma) was 2.63 µM and the GI50 (NCI-H226 lung) was 0.257 µM. For the same compound, the TGI (NCI-H226 lung) was 1.08 µM, the GI50 (EKVX NSCLC) was 0.505 µM and the TGI (EKVX NSCLC) was 2.03 µM. For the same compound, the GI50 (UACC-257 melanoma) was 1.72 µM, the TGI (UACC-257 melanoma) was 3.1 µM and the GI50 (U251 glioblastoma) was 1.08 µM. The TGI (U251 glioblastoma) was 2.28 µM, the GI50 (MALME-3M melanoma) was 1.99 µM and the TGI (MALME-3M melanoma) was 4.24 µM. For the same compound, the GI50 (MDA-MB-468 breast) was 1.32 µM, the TGI (MDA-MB-468 breast) was 2.61 µM and the GI50 (A549 NSCLC) was 1.46 µM. The TGI (A549 NSCLC) was 2.84 µM, the GI50 (MCF7 breast) was 0.582 µM and the TGI (MCF7 breast) was 2.37 µM. For the same compound, the GI50 (ACHN renal) was 0.472 µM, the TGI (ACHN renal) was 1.66 µM and the GI50 (HT29 colon) was 1.46 µM. It also gave a TGI (HT29 colon) of 2.8 µM, a GI50 (SN12C renal) of 0.0538 µM and a TGI (SN12C renal) of 0.71 µM.
